Measured values published in patent US8466290B2, “STAT3 inhibitor containing quinolinecarboxamide derivative as active ingredient” (Pharma IP General Incorporated Association, priority 2008, dated 2013).

Legend:
STAT3 = STAT3 transcription inhibition test (reporter gene method, oncostatin M stimulation); type: cell-based; details: Homo sapiens; compound at 100 μM; STAT3 reporter HeLa stable cell line; oncostatin M 10 ng/mL, 4 hours; read-out: STAT3 transcription inhibitory activity (%)
Protocol: The inhibition of STAT3 transcription was evaluated by using STAT3 reporter HeLa stable cell line (Panomics Inc., catalog No. RC0003), a cell line for the reporter gene method, and performing the following method according to the appendix included therein.
STAT3 reporter HeLa stable cell line subcultured and maintained in a Dulbecco's modified Eagle's medium (DMEM) containing 10% fetal bovine serum, 100 units/mL penicillin, and 100 μg/mL streptomycin was inoculated at a concentration of 40000 cells/well to a 96-well plate (white) and attached to the plate by overnight incubation at 37° C. under 5% CO2. After addition of each evaluation compound adjusted to various concentrations (adjusted with a DMSO solution), the cells were precultured for 1 hour. Then, oncostatin M for activating STAT3 was added at a final concentration 10 ng/mL, and the cells were further cultured at 37° C. under 5% CO2 for 4 hours. Luciferase activity derived from the cells was determined using Steady-Glo Luciferase Assay System (Promega Corp.), and STAT3 transcriptional activity scores were calculated according to the following formula: STAT3 transcriptional activity score (%)=100×(Lchem−L0)/(LDMSO−L0) Lo: luminescence intensity obtained without stimulation with oncostatin M Lchem: luminescence intensity obtained by the addition of a test sample LDMSO: luminescence intensity obtained by the addition of only a solvent for dissolving a test sample

MDA-MB-435S = MDA-MB-435S cell growth inhibitory activity; type: cell-based; details: Homo sapiens, compound at 20 μM, 72 hours, read-out: Cell growth inhibitory activity (%)
Protocol: […] Each well was washed three times with a medium. Then, after addition of 100 μL/well of a medium and 20 μL/well of CellTiter 96 AQueous One Solution Reagent (Promega Corp.), the cells were incubated at 37° C. for 2 hours in the presence of 5% CO2.

Structure (SMILES)	inhibition at 100 µM (STAT3) [%]	inhibition at 20 µM (MDA-MB-435S) [%]
O=C(Nc1nnc(-c2ccco2)o1)c1cc(-c2ccccc2)nc2ccc(-c3cccnc3)cc12 [Ia-100, N-[5-(2-furyl)-1,3,4-oxadiazol-2-yl]-6-(3-pyridyl)-2-phenyl-4-quinolinecarboxamide]	92	76
O=C(Nc1nnc(Br)s1)c1cc(-c2ccccc2)nc2ccccc12 [Ib-2, N-(5-bromo-1,3,4-thiadiazol-2-yl)-2-phenyl-4-quinolinecarboxamide]	> 100	79
O=C(Nc1nnc(-c2ccccc2)o1)c1cc(-c2ccccc2)nc2ccc(OC(F)(F)F)cc12 [Ia-111, N-(5-phenyl-1,3,4-oxadiazol-2-yl)-2-phenyl-6-trifluoromethoxy-4-quinolinecarboxamide]	> 100	87
O=C(Nc1nnc(-c2ccco2)o1)c1cc(-c2ccc(F)cc2)nc2ccccc12 [Ia-46, 2-(4-fluorophenyl)-N-[5-(2-furyl)-1,3,4-oxadiazol-2-yl]-4-quinolinecarboxamide]	80	54
O=C(Nc1nnc(-c2ccco2)o1)c1cc(-c2ccccc2)nc2ccc(-c3ccccc3)cc12 [Ia-75, N-[5-(2-furyl)-1,3,4-oxadiazol-2-yl]-2,6-diphenyl-4-quinolinecarboxamide]	> 100	64
COc1ccc(-c2nnc(NC(=O)c3cc(-c4ccccc4)nc4ccc(OC(F)(F)F)cc34)o2)cc1 [Ia-117, N-[5-(4-methoxyphenyl)-1,3,4-oxadiazol-2-yl]-2-phenyl-6-trifluoromethoxy-4-quinolinecarboxamide]	87	85
Cc1ccc(-c2cc(C(=O)Nc3nnc(-c4ccco4)o3)c3cccc(C)c3n2)cc1 [Ia-27, N-[5-(2-furyl)-1,3,4-oxadiazol-2-yl]-8-methyl-2-(4-tolyl)-4-quinolinecarboxamide]	71	99
Cc1ccc(-c2cc(C(=O)Nc3nnc(-c4ccco4)o3)c3ccccc3n2)o1 [Ia-64, N-[5-(2-furyl)-1,3,4-oxadiazol-2-yl]-2-(5-methyl-2-furyl)-4-quinolinecarboxamide]	> 100	57
Cc1ccc2nc(-c3cccs3)cc(C(=O)Nc3nnc(-c4ccco4)o3)c2c1 [Ia-29, N-[5-(2-furyl)-1,3,4-oxadiazol-2-yl]-6-methyl-2-(2-thienyl)-4-quinolinecarboxamide]	65	98
O=C(Nc1nnc(-c2ccco2)o1)c1cc(-c2ccccc2)nc2ccc(-c3ccsc3)cc12 [Ia-99, N-[5-(2-furyl)-1,3,4-oxadiazol-2-yl]-6-(3-thienyl)-2-phenyl-4-quinolinecarboxamide]	73	93
O=C(Nc1nnc(-c2ccncc2)s1)c1cc(-c2ccccc2)nc2ccc(OC(F)(F)F)cc12 [Ib-8, 2-phenyl-N-[5-(4-pyridyl)-1,3,4-thiadiazol-2-yl]-6-trifluoromethoxy-4-quinolinecarboxamide]	65	80
O=C(Nc1nnc(-c2ccccc2)o1)c1cc(-c2ccccc2)nc2ccc(Cl)cc12 [Ia-110, 6-chloro-2-phenyl-N-(5-phenyl-1,3,4-oxadiazol-2-yl)-4-quinolinecarboxamide]	89	65
O=C(Nc1nnc(-c2ccco2)o1)c1cc(-c2ccccc2)nc2ccc(-c3ccc(O)cc3)cc12 [Ia-98, N-[5-(2-furyl)-1,3,4-oxadiazol-2-yl]-6-(4-hydroxyphenyl)-2-phenyl-4-quinolinecarboxamide]	> 100	86
COc1ccc(-c2cc(C(=O)Nc3nnc(-c4ccco4)o3)c3ccccc3n2)cc1 [Ia-51, N-[5-(2-furyl)-1,3,4-oxadiazol-2-yl]-2-(4-methoxyphenyl)-4-quinolinecarboxamide]	> 100	56
O=C(Nc1nnc(-c2cccs2)o1)c1cc(-c2ccccc2)nc2ccccc12 [Ia-a, 2-phenyl-N-[5-(2-thienyl)-1,3,4-oxadiazol-2-yl]-4-quinolinecarboxamide]	86	89
N#Cc1cccc(-c2cc(C(=O)Nc3nnc(-c4ccco4)o3)c3ccccc3n2)c1 [Ia-43, 2-(3-cyanophenyl)-N-[5-(2-furyl)-1,3,4-oxadiazol-2-yl]-4-quinolinecarboxamide]	71	72
O=C(Nc1nnc(-c2ccco2)o1)c1cc(-c2ccccc2O)nc2ccccc12 [Ia-38, N-[5-(2-furyl)-1,3,4-oxadiazol-2-yl]-2-(2-hydroxyphenyl)-4-quinolinecarboxamide]	> 100	50
O=C(Nc1nnc(-c2ccco2)o1)c1cc(-c2ccc3c(c2)OCO3)nc2ccccc12 [Ia-58, N-[5-(2-furyl)-1,3,4-oxadiazol-2-yl]-2-(3,4-methylenedioxyphenyl)-4-quinolinecarboxamide]	> 100	58
O=C(Nc1nnc(-c2ccco2)o1)c1cc(-c2ccccc2)nc2ccc(-c3ccncc3)cc12 [Ia-76, N-[5-(2-furyl)-1,3,4-oxadiazol-2-yl]-2-phenyl-6-(4-pyridyl)-4-quinolinecarboxamide]	> 100	84
O=C(Nc1nnc(-c2ccco2)o1)c1cc(-c2cccc(Cl)c2)nc2ccccc12 [Ia-41, 2-(3-chlorophenyl)-N-[5-(2-furyl)-1,3,4-oxadiazol-2-yl]-4-quinolinecarboxamide]	> 100	55
O=C(Nc1nnc(-c2ccco2)o1)c1cc(-c2ccccc2)nc2ccc(Br)cc12 [Ia-68, 6-bromo-N-[5-(2-furyl)-1,3,4-oxadiazol-2-yl]-2-phenyl-4-quinolinecarboxamide]	> 100	63
CC(C)Oc1cccc(-c2cc(C(=O)Nc3nnc(-c4ccncc4)s3)c3ccccc3n2)c1 [Ib-b, 2-(3-isopropoxyphenyl)-N-[5-(4-pyridyl)-1,3,4-thiadiazol-2-yl]-4-quinolinecarboxamide]	> 100	97
O=C(Nc1nnc(-c2ccccc2)o1)c1cc(-c2ccccc2)nc2ccccc12 [Ia-3, 2-phenyl-N-(5-phenyl-1,3,4-oxadiazol-2-yl)-4-quinolinecarboxamide]	> 100	53
COc1cccc(-c2cc(C(=O)Nc3nnc(-c4ccco4)o3)c3ccccc3n2)c1 [Ia-42, N-[5-(2-furyl)-1,3,4-oxadiazol-2-yl]-2-(3-methoxyphenyl)-4-quinolinecarboxamide]	92	92
O=C(Nc1nnc(Cc2ccccc2)o1)c1cc(-c2ccccc2)nc2ccccc12 [Ia-83, N-(5-benzyl-1,3,4-oxadiazol-2-yl)-2-phenyl-4-quinolinecarboxamide]	> 100	90
Cc1ccc(-c2cc(C(=O)Nc3nnc(-c4ccco4)o3)c3ccccc3n2)cc1 [Ia-48, N-[5-(2-furyl)-1,3,4-oxadiazol-2-yl]-2-(4-methylphenyl)-4-quinolinecarboxamide]	92	69
